According to patent US7211422B2, “Polypeptide having α-isomaltosylglucosaccharide synthase activity” (Kabushiki Kaisha Hayashibara Seibutsu Kagaku Kenkyujo, priority 2001, dated 2007):

Legend:
[1] = tested on: α-isomaltosylglucosaccharide-forming enzyme from Bacillus globisporus N75; experiment: Action on saccharides (TLC before and after enzymatic reaction); format: biochemical; set-up: key: −: it showed no change; +: it showed a slight reduction of the color spot of the substrate and the formation of other reaction product; ++: it showed a high reduction of the color spot of the substrate and the formationof other reaction product; +++: it showed a substantial disappearance of the substrate spot and the formation of other reaction product; details: two units/g substrate, substrate 2% (w/v), 30° C., pH 6.0, 24 hours
Experimental: (§1) It was tested whether saccharides can be used as substrates for the polypeptide of α-isomaltosylglucosaccharide-forming enzyme of the present invention. For the purpose, a solution of maltose, maltotriose, maltotetraose, maltopentaose, maltohexaose, maltoheptaose, isomaltose, isomaltotriose, panose, isopanose, trehalose, kojibiose, nigerose, neotrehalose, cellobiose, gentibiose, maltitol, maltotriitol, lactose, sucrose, erlose, selaginose, maltosyl glucoside, or isomaltosyl glucoside was prepared.
(§2) To each of the above solutions was added two units/g substrate of a purified polypeptide specimen of α-isomaltosylglucosaccharide-forming enzyme from either Bacillus globisporus C11 obtained by the method in Experiment 1-3, Bacillus globisporus N75 obtained by the method in Experiment 2-3, or Arthrobacter globiformis A19 obtained by the method in Experiment 3-3, and the resulting each solution was adjusted to give a substrate concentration of 2% (w/v) and incubated at 30° C. and pH 6.0, except for using pH 8.4 for the enzyme from Arthrobacter globiformis A19, for 24 hours. In order to analyze the saccharides in the reaction mixture before and after the enzymatic reaction, silica gel thin-layer chromatography (hereinafter, abbreviated as “TLC”) was carried out. After two-times development using, as a developer, a mixture solution of n-butanol, pyridine, and water (=6:4:1), and, as a thin-layer plate, “KIESELGEL 60”, an aluminum plate (20×20 cm) for TLC commercialized by Merck & Co., Inc., Rahway, USA, the saccharides in the reaction mixture were examined whether the enzyme acted or not by the coloration of sugars by the sulfuric acid-methanol method.

[2] = tested on: α-isomaltosylglucosaccharide-forming enzyme from Arthrobacter globiformis A19; experiment: as above; format: biochemical; set-up: key: −: it showed no change; +: it showed a slight reduction of the color spot of the substrate and the formation of other reaction product; ++: it showed a high reduction of the color spot of the substrate and the formationof other reaction product; +++: it showed a substantial disappearance of the substrate spot and the formation of other reaction product; details: two units/g substrate, substrate 2% (w/v), 30° C., pH 8.4, 24 hours
Experimental: as §1, §2

[3] = tested on: α-isomaltosylglucosaccharide-forming enzyme from Bacillus globisporus C11; experiment: as above; format: biochemical; set-up: key: −: it showed no change; +: it showed a slight reduction of the color spot of the substrate and the formation of other reaction product; ++: it showed a high reduction of the color spot of the substrate and the formationof other reaction product; +++: it showed a substantial disappearance of the substrate spot and the formation of other reaction product; details: two units/g substrate, substrate 2% (w/v), 30° C., pH 6.0, 24 hours
Experimental: as §1, §2

[4] = tested on: polypeptide having α-isomaltosylglucosaccharide-forming enzyme activity; experiment: Action on saccharides, summary in words for the polypeptide in general; format: biochemical; details: summary of Table 7
Experimental: as §1, §2

[5] = tested on: polypeptide having α-isomaltosylglucosaccharide-forming enzyme activity, obtained in Experiment 1-3; experiment: Reaction product from maltooligosaccharide (sugar composition by HPLC); format: biochemical, Bacillus globisporus C11; set-up: unit not given here; details: 1% (w/v) substrate, 35° C., pH 6.0, 8 hours
Experimental: To an aqueous solution containing one percent (w/v) of maltose, maltotriose, maltotetraose, or maltopentaose as a substrate was added the polypeptide having α-isomaltosylglucosaccgaride-forming enzyme activity, obtained in Experiment 1-3, in an amount of two units/g-solid for maltose and maltotriose, 0.2 unit/g-solid for maltotetraose, and 0.1 unit/g-solid for maltopentaose, followed by incubation at 35° C. and pH 6.0 for 8 hours. After stopping the enzymatic reaction by a 10-minutes incubation, sugar compositions in the reaction mixture were measured by HPLC using “YMC Pack ODS-AQ303”, a column commercialized by YMC Co., Ltd., Tokyo, Japan, at a column temperature of 40° C. and a flow rate of 0.5 ml/minutes of water, and using as a detector “RI-8012”, a differential refractometer commercialized by Tosoh Corporation, Tokyo, Japan.

| Enzyme action, N75 enzyme [1] | Enzyme action, A19 enzyme [2] | Enzyme action, C11 enzyme [3] | Action of the polypeptide on the saccharide (in words) [4] | Sugar composition of reaction mixture, substrate Maltopentaose ([5]; 0.1 unit/g-solid) | Sugar composition of reaction mixture, substrate Maltotetraose ([5]; 0.2 unit/g-solid) | Sugar composition of reaction mixture, substrate Maltotriose ([5]; two units/g-solid) | Sugar composition of reaction mixture, substrate Mlatose ([5]; two units/g-solid) | Compound |
| --- | --- | --- | --- | --- | --- | --- | --- | --- |
| + | + | + | slightly acted |  |  |  |  | OC[C@H]1O[C@@H](O[C@H]2O[C@H](CO)[C@@H](O)[C@H](O)[C@H]2O)[C@H](O)[C@@H](O)[C@@H]1O [Neotrehalose, neotrehalose] |
| + | + | + | slightly acted | 0.0 | 0.3 | 17.9 | 78.0 | OC[C@H]1O[C@H](O[C@H]2[C@H](O)[C@@H](O)[C@H](O)O[C@@H]2CO)[C@H](O)[C@@H](O)[C@@H]1O [Maltose, maltose] |
| + | + | + | slightly acted |  |  |  |  | OC[C@H]1O[C@H](O[C@H]2C(O)O[C@H](CO)[C@@H](O)[C@@H]2O)[C@H](O)[C@@H](O)[C@@H]1O (stereo partly shown) [Kojibiose, kojibiose] |
| + | + | + | slightly acted |  |  |  |  | OC[C@@H](O)[C@@H](O[C@H]1O[C@H](CO)[C@@H](O[C@H]2O[C@H](CO)[C@@H](O)[C@H](O)[C@H]2O)[C@H](O)[C@H]1O)[C@H](O)[C@@H](O)CO [Maltotriitol, maltotriitol] |
| + | + | + | slightly acted |  |  |  |  | OC[C@H]1O[C@H](O[C@H]2[C@H](O)[C@@H](CO)OC(O)[C@@H]2O)[C@H](O)[C@@H](O)[C@@H]1O (stereo partly shown) [Nigerose, nigerose] |
| + | + | + | slightly acted |  |  |  |  | OC[C@H]1O[C@@](CO)(O[C@H]2O[C@H](CO)[C@@H](O[C@H]3O[C@H](CO)[C@@H](O)[C@H](O)[C@H]3O)[C@H](O)[C@H]2O)[C@@H](O)[C@@H]1O [Erlose, erlose] |
